Patent publication US8343513B2, “Prevention of molecular weight reduction of the polymer, impurity formation and gelling in polymer compositions” (Oakwood Laboratories, LLC, priority 2003, dated 2013)
Where a SMILES comes first, the peptide text is derived from it. [ ]: non-standard residue; d: D form. The star is where a group is joined. dPhe(4-Cl) = N[C@H](Cc1ccc(Cl)cc1)C(=O)O; Nicotinoyl(6-NH2) = Nc1ccc(C(=O)*)cn1; d2Nal = N[C@H](Cc1ccc2ccccc2c1)C(=O)O; Lys(iPr) = CC(C)NCCCC[C@H](N)C(=O)O; d3Pal = N[C@H](Cc1cccnc1)C(=O)O; Picolinoyl = O=C(c1ccccn1)*; dOrn = NCCC[C@@H](N)C(=O)O

Assays:
[1] = Orntide solubility and gelling in solvents and dispersed phase; format: physicochemical
Source text: However, most of the GnRH analogs are soluble only at certain concentrations (at very low concentrations of antagonists and moderate concentrations of agonists) beyond which these analogs pose solubility and gelling problems when dissolved in these solvents.
The stability was followed for a day.

[2] = Screening of octreotide related substance formation with polymers and acid additives, 40° C. 24 and 48 hour; format: physicochemical; conditions: octreotide with polymer in DCM/methanol
[3] = cited from earlier work

Structure (SMILES) | related substances formation in words [2] | also measured
CC(=O)N[C@H](Cc1ccc2ccccc2c1)C(=O)N[C@H](Cc1ccc(Cl)cc1)C(=O)N[C@H](Cc1cccnc1)C(=O)N[C@@H](CO)C(=O)N[C@@H](CCCCNC(=O)c1ccccn1)C(=O)N[C@H](CCCNC(=O)c1ccc(N)nc1)C(=O)N[C@@H](CC(C)C)C(=O)N[C@@H](CCCCNC(C)C)C(=O)N1CCC[C@H]1C(=O)N[C@H](C)C(N)=O [PPL-ORN-9902] (Ac-[d2Nal][dPhe(4-Cl)][d3Pal]SK(Picolinoyl)[dOrn](Nicotinoyl(6-NH2))L[Lys(iPr)]P[dA]-NH2) |  | time to gel ([1]; 84 mg orntide acetate, 100 mg glacial acetic acid, 130 mg methanol, 1.28 g methylene chloride, warmed to 40° C.): ≤ 30 min
CC(=O)O [glacial acetic acid] | less efficient than lactic and glycolic acids | 
O=C(O)C(O)CO (stereo not shown) [glyceric acid] |  | pKa [3]: 3.25
O=C(O)CO [glycolic acid] | prevented the related substances formation | 
CC(O)C(=O)O (stereo not shown) [lactic acid] | reduced the related substances and made comparable to the control | 
CC(=O)N[C@H](Cc1ccc2ccccc2c1)C(=O)N[C@H](Cc1ccc(Cl)cc1)C(=O)N[C@H](Cc1cccnc1)C(=O)N[C@@H](CO)C(=O)N[C@@H](CCCCNC(=O)c1ccccn1)C(=O)N[C@H](CCCNC(=O)c1ccc(N)nc1)C(=O)N[C@@H](CC(C)C)C(=O)N[C@@H](CCCCNC(C)C)C(=O)N1CCC[C@H]1C(=O)N[C@H](C)C(N)=O [orntide] (Ac-[d2Nal][dPhe(4-Cl)][d3Pal]SK(Picolinoyl)[dOrn](Nicotinoyl(6-NH2))L[Lys(iPr)]P[dA]-NH2) |  | solubility ([1]; aqueous media, even at a pH lower than 5): < 5000 µg/mL
CCCCCCCCCCCCCCCCCC(=O)O [stearic acid] | less efficient than lactic and glycolic acids | 
